Earlier results in patent publication US20250387523A1, “COMBINATION THERAPY OF RADIONUCLIDE COMPLEX” (Novartis AG, priority 2021, published 2025).
Like-named read-outs stand apart in the source and are kept apart here.

Key:
[1] = tested on: newly diagnosed glioblastoma; conditions: newly diagnosed patients; temozolomide added to radiation therapy (radiotherapy alone 12.1 months)
[2] = tested on: newly diagnosed glioblastoma
recurrent glioblastoma = conditions: randomized 2:1

Cn1nnc2c(C(N)=O)ncn2c1=O [temozolomide, 3,4-Dihydro-3-methyl-4-oxoimidazo[5,1-d][1,2,3,5]tetrazine-8-carboxamide]
median overall survival [1]: 14.6 months | longer median survival with MGMT promoter methylation (glioblastoma; glioblastoma patients treated with temozolomide, MGMT promoter methylation present vs lacking): approximately 50% | clinical benefit (glioblastoma; patients that lack MGMT promoter methylation): no clinical benefit | median survival ([2]; patients with a methylated MGMT promoter, temozolomide and radiotherapy (radiotherapy only 15.3 months, P=0.007)): 21.7 months | median survival ([2]; tumors not methylated at the MGMT promoter, temozolomide plus radiotherapy (radiotherapy only 11.8 months, P=0.06)): 12.7 months

O=NN(CCCl)C(=O)NC1CCCCC1 [lomustine]
median OS (recurrent glioblastoma): 8.6 months | median PFS (recurrent glioblastoma): 1.5 months
